Source: ChEMBL document CHEMBL1201862, “PubChem BioAssay data set” (2004)
The source made the active and inactive calls. Rule as the data show it: actives have a measured IC50 and inactives only a lower limit.

Molecular target: Envelope glycoprotein gp160 (Human immunodeficiency virus 1, UniProt Q6QLK5)
Experiment: cell-free HIV fusion peptide-binding blockers – biochemical, uHTS, fluorescence dequenching, […] (AID 1986)

Sequence of Envelope glycoprotein gp160 (Q6QLK5 whole entry, the tested form may be a part): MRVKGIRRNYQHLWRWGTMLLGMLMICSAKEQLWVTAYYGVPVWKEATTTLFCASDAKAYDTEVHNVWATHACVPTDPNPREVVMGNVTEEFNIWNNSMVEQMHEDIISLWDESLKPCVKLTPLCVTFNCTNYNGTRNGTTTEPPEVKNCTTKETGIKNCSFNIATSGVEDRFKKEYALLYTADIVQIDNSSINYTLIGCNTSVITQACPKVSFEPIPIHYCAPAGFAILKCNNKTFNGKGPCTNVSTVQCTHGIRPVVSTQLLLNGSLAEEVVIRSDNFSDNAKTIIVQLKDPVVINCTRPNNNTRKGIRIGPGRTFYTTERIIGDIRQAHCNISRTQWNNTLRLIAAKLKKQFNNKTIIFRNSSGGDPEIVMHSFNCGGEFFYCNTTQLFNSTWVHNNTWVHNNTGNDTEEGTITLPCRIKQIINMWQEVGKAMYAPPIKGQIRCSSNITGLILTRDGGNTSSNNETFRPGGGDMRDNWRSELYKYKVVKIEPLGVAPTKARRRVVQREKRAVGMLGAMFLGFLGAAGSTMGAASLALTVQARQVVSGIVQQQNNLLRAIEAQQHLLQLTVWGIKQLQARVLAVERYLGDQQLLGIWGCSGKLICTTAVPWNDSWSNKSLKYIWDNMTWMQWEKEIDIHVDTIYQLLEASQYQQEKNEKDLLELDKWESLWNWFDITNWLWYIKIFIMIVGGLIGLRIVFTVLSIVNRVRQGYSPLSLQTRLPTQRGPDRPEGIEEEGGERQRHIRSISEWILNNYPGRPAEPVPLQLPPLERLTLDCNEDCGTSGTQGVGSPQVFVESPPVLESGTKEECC

Row | Structure (SMILES) | IC50
1 | COc1cc(/C=C2\SC(=S)NC2=O)ccc1OS(=O)(=O)c1ccccc1 | 18 µM (active)
2 | CCOc1ccc(NC(=NCc2ccc3c(c2)OCO3)SC2CC(=O)N(c3ccc(C(=O)O)cc3)C2=O)cc1 (stereo not drawn) | 25.9 µM (active)
3 | CC(Oc1ccc(Cl)cc1Cl)C(=O)Nc1ccc(S(=O)(=O)Nc2cnc3ccccc3n2)cc1 (stereo not drawn) | 15.7 µM (active)
